Reference: article PMC5442318, “Hundreds of dual-stage antimalarial molecules discovered by a functional gametocyte screen” (Nature Communications, 2017)

Tests used:
[1] = tested on: P. falciparum stage V female gametocytes; experiment: P. falciparum female gametocyte activation assay (Pf FGAA), 24 h or 48 h preincubation, Pfs25 expression readout; type: cell-based, Plasmodium falciparum NF54; conditions: mean; read-out: Gametocytes mean Pf FGAA IC50
Method in brief: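 Female activation, triggered by xanthurenic acid and cooling, was scored by imaging Cy3-labelled anti-Pfs25 female gametes after 24 h at 26 °C. Beforehand, purified NF54 stage V gametocytes had been incubated with compound for either 24 h or 48 h (37 °C, 3% O2). Values are pIC50 from full-curve regression.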

[2] = tested on: P. falciparum stages IV–V gametocytes; experiment: Gametocytocidal ATP-depletion assay (gametocyte ATP bioluminescence); type: cell-based, Plasmodium falciparum
Method in brief: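 Read-out is luciferase luminescence of parasite ATP (BacTiter-Glo), standing in for viability. Double-purified mature stage IV–V gametocytes, 12,500 per well, were exposed 48 h at 37 °C in low-O2 gas; screening concentration 2 μM.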

[3] = tested on: HepG2 cells; experiment: HepG2 cytotoxicity assay; type: cell-based; conditions: mean
Method in brief: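 Once incubation ended, the HepG2 plates were warmed to room temperature for 30 min alongside the CellTiter-Glo reagent. Luminescent signal was developed by reagent addition and stabilized for 10 min before plate reading.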

[4] = tested on: P. falciparum asexual blood stages; conditions: TCAMS data; ref 1 (Gamo et al., 2010); read-out: Pf Asexual blood stages XC50; cited from earlier work

| Compound | IC50 [1] [nM] | Gametocytes mean ATP inhibition at 2µM (%) [2] [%] | HepG2 cells mean TOX50 [3] [µM] | IC50 [4] [nM] |
| --- | --- | --- | --- | --- |
| COc1c(OC)c(OC)c2ccccc2c1CNCCCCCCNCc1c(OC)c(OC)c(OC)c2ccccc12.Cl [TCMDC-137827] | 1670 | -6.56 | 2.95 | 760 |
| C#CCCOc1ccc2ccccc2c1CNCCCCCCNCc1c(OCCC#C)ccc2ccccc12 [TCMDC-137832] | 920 | 12.79 | 4.79 | 810 |
| COc1c(CNCCCCCCNCc2c(OC)c(OC)c3ccccc3c2OC)c(OC)c2ccccc2c1OC.CS(=O)(=O)O [TCMDC-137837] | 3690 | 18.67 | 4.42 | 960 |
| C#CCOc1ccc2ccccc2c1CNCCCCCCNCc1c(OCC#C)ccc2ccccc12.CS(=O)(=O)O [TCMDC-137838] | 1050 | 77.84 | 2.92 | 780 |
| Nc1nc(N)c2c(ccc3[nH]c(-c4ccccc4Cl)nc32)n1 [TCMDC-137840] | 4420 | 22.85 | 2.32 | 230 |
| COc1cc2ccccc2c(OC)c1CCNCCCCNCCc1c(OC)cc2ccccc2c1OC.CS(=O)(=O)O [TCMDC-137842] | 1240 | 60.27 | 4.17 | 890 |
| CCCCOc1cc(OC)c2ccccc2c1CCNCCCCNCCc1c(OCCCC)cc(OC)c2ccccc12.CS(=O)(=O)O [TCMDC-137845] | 760 | 95.21 | 1.97 | 1050 |
| CCCCOc1c(CCNCCCCNCCc2cc(OC)c3ccccc3c2OCCCC)cc(OC)c2ccccc12.CS(=O)(=O)O [TCMDC-137848] | 610 | 84.96 | 1.97 | 930 |
| CS(=O)(=O)O.FC(F)(F)COc1ccc(CNCCCCCCNCc2ccc(OCC(F)(F)F)c3ccccc23)c2ccccc12 [TCMDC-137853] | 630 | 94.02 | 2.46 | 400 |
| COc1c(CCNCCCCNCCc2cc(Cl)c3ccccc3c2OC)cc(Cl)c2ccccc12.CS(=O)(=O)O [TCMDC-137869] | 330 | 96.85 | 1.78 | 170 |
| CN(CCCNCc1ccc2ccccc2c1)CCCNCc1ccc2ccccc2c1.Cl [TCMDC-137908] | 90 | 72.34 | 5.01 | 390 |
| COc1ccc2ccccc2c1CNCCCCCCNCc1c(OC)ccc2ccccc12.Cl [TCMDC-137915] | 700 | 20.95 | 4.22 | 710 |
| COc1ccc2c(c1)CC(C)(C)NC2CCCCCCCCC1NC(C)(C)Cc2cc(OC)ccc21.O=C(O)C(=O)O (stereo not shown) [TCMDC-137935] | 1470 | 1.39 | 5.62 | 1300 |
| CCOc1cc(CNCCCCCCNCc2cc(OCC)c(OCC)c3ccccc23)c2ccccc2c1OCC.CS(=O)(=O)O [TCMDC-137939] | 1780 | 5.51 | 2.00 | 280 |
| CCOc1cc2ccccc2cc1CNCCCCCCNCc1cc2ccccc2cc1OCC.CS(=O)(=O)O [TCMDC-137940] | 1290 | 2.59 | 6.06 | 980 |
| COc1cc2ccccc2cc1CCNCCCCNCCc1cc2ccccc2cc1OC.CS(=O)(=O)O [TCMDC-137944] | 620 | 84.04 | 1.66 | 400 |
| COc1cc2c(OC)cccc2cc1CNCCCCCCNCc1cc2cccc(OC)c2cc1OC.CS(=O)(=O)O [TCMDC-137945] | 1820 | -15.51 | 4.90 | 820 |
| CCCOc1c(CCNCCCCNCCc2ccc3ccccc3c2OCCC)ccc2ccccc12.CS(=O)(=O)O [TCMDC-137950] | 640 | 95.44 | 1.72 | 480 |
| CCCOc1ccc(CCNCCCCNCCc2ccc(OCCC)c3ccccc23)c2ccccc12.CS(=O)(=O)O [TCMDC-137952] | 610 | 94.33 | 2.16 | 920 |

| Compound | IC50 [1] [nM] | Gametocytes mean ATP inhibition at 2µM (%) [2] [%] | HepG2 cells mean TOX50 [3] [µM] | IC50 [4] [nM] |
| --- | --- | --- | --- | --- |
| COc1ccc2c(OC)c(CNCCCCCCNCc3ccc4cc(OC)ccc4c3OC)ccc2c1.CS(=O)(=O)O [TCMDC-137953] | 1000 | 2.77 | 2.11 | 920 |
| COc1c(CNCCCCCCNCc2cc(Cl)c3ccccc3c2OC)cc(Cl)c2ccccc12.CS(=O)(=O)O [TCMDC-137958] | 1180 | -6.18 | 4.62 | 940 |
| COc1ccc(CCNCCCCNCCc2ccc(OC)c3ccccc23)c2ccccc12.CS(=O)(=O)O [TCMDC-137961] | 480 | 90.63 | 2.14 | 450 |
| CCCCCCOc1ccc2ccccc2c1CNCCCCCCNCc1c(OCCCCCC)ccc2ccccc12.CS(=O)(=O)O [TCMDC-137963] | 1500 | 77.54 | 2.40 | 1060 |
| CC(C)Oc1ccc2ccccc2c1CNCCCCCCNCc1c(OC(C)C)ccc2ccccc12.CS(=O)(=O)O [TCMDC-137965] | 950 | 37.88 | 1.91 | 610 |
| CCCOc1ccc2ccccc2c1CNCCCCCCNCc1c(OCCC)ccc2ccccc12.CS(=O)(=O)O [TCMDC-137966] | 1030 | 42.35 | 2.00 | 790 |
| CC(C)COc1ccc2ccccc2c1CNCCCCCCNCc1c(OCC(C)C)ccc2ccccc12.CS(=O)(=O)O [TCMDC-137972] | 810 | 92.13 | 2.19 | 690 |
| CCCCOc1c(CNCCCCCCNCc2ccc3ccccc3c2OCCCC)ccc2ccccc12.CS(=O)(=O)O [TCMDC-137975] | 1490 | 37.85 | 2.21 | 870 |
| COc1ccccc1-c1nc2c(ccc3nc(N)nc(N)c32)[nH]1 [TCMDC-137976] | 1130 | 85.21 | 2.87 | 180 |
| CC(C)(C)c1ccc(-c2cc3c(ccc4nc(N)nc(N)c43)[nH]2)cc1 [TCMDC-137977] | 770 | 65.65 | 1.86 | 110 |
| CC(C)(C)c1ccc(-c2nc3c(ccc4nc(N)nc(N)c43)[nH]2)cc1.Cl [TCMDC-137984] | 260 | 79.78 | 2.12 | 160 |
| CCCN(CCC)CCCN(CCCN(CCC)CCC)c1cc(C)nc(Nc2ccc3cc(Br)ccc3c2)n1.Cl [TCMDC-138006] | 990 | -22.37 | 3.43 | 210 |
| CCCCCCCCN1CCN(CCCCCCNc2c3ccccc3nc3ccccc23)CC1.Cl [TCMDC-138015] | 640 | 57.24 | 3.35 | 160 |
| Cl.Clc1ccc(CNCCCCCCCNCc2ccc(Cl)c(Cl)c2)cc1Cl [TCMDC-138075] | 700 | -3.08 | 4.57 | 370 |
| COc1cc2nc(N3CCC(CNC(=O)c4ccc(-c5ccc(-c6noc(C)n6)cc5C)cc4)CC3)nc(N)c2cc1OC [TCMDC-138155] | 1680 | 5.13 | 7.62 | 220 |
| CC(=O)c1ccc2nc[nH]c(=O)c2c1 [TCMDC-138172] | 980 | 67.05 | 6.24 | 720 |
| COc1cc2nc(NCc3cccc(CNC(=O)c4ccc(-c5ccc(C(C)=O)cc5)cc4)c3)nc(N)c2cc1OC.O=C(O)C(F)(F)F [TCMDC-138177] | 4730 | -19.05 | 6.82 | 120 |
| COc1cc2nc(N3CCN(C(=O)c4c(Cl)nsc4-c4ccccc4Cl)CC3)nc(N)c2cc1OC.O=C(O)C(F)(F)F [TCMDC-138186] | 990 | 69.90 | 5.89 | 530 |
